Experiments:
Assay in all cases: Test B preemergence/postemergence greenhouse plant response rating 0 to 10
barley = format: in vivo, Hordeum vulgare; details: for Plant response rating, Barley: 0 to 10 scale
How it was run: (§1)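 Planted seeds are treated preemergence with compound dissolved in a non-phytotoxic solvent, while postemergence applications go onto plants of two to eighteen cm. Plants stay in the greenhouse twelve to sixteen days and are then rated visually relative to controls.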

bedstraw = format: in vivo, Galium aparine; details: for Plant response rating, Bedstraw: 0 to 10 scale
How it was run: as §1

cheatgrass = format: in vivo, Bromus secalinus; details: for Plant response rating, Cheatgrass: 0 to 10 scale
How it was run: as §1

cocklebur = format: in vivo, Xanthium pensylvanicum; details: for Plant response rating, Cocklebur: 0 to 10 scale
How it was run: as §1

giant foxtail = format: in vivo, Setaria faberii; details: for Plant response rating, Giant foxtail: 0 to 10 scale; for Plant response rating (0 to 10 scale), Giant foxtail: Rate 100 g/ha
How it was run: as §1

lambsquarters = format: in vivo, Chenopodium album; details: for Plant response rating, Lambsquarter: 0 to 10 scale; for Plant response rating (0 to 10 scale), Lambsquarter: Rate 100 g/ha
How it was run: as §1

morningglory = format: in vivo, Ipomoea hederacea; details: for Plant response rating, Morningglory: 0 to 10 scale; for Plant response rating (0 to 10 scale), Morningglory: Rate 100 g/ha
How it was run: as §1

soybean = format: in vivo, Glycine max; details: for Plant response rating, Soybean: 0 to 10 scale; for Plant response rating (0 to 10 scale), Soybean: Rate 100 g/ha
How it was run: as §1

velvetleaf = format: in vivo, Abutilon theophrasti; details: for Plant response rating, Velvetleaf: 0 to 10 scale
How it was run: as §1

Clc1ccc(-c2nc3n(c2Br)CCCC3)c(Cl)c1 [Compound 2]
4: Plant response rating, Bedstraw (bedstraw; POSTEMERGENCE, Rate 200 g/ha) | Plant response rating, Cheatgrass (cheatgrass; POSTEMERGENCE, Rate 400 g/ha) | Plant response rating, Giant foxtail (giant foxtail; POSTEMERGENCE, Rate 50 g/ha) | Plant response rating (0 to 10 scale), Giant foxtail (giant foxtail; POSTEMERGENCE) | Plant response rating, Velvetleaf (velvetleaf; PREEMERGENCE, Rate 400 g/ha)
3: Plant response rating, Barley (barley; POSTEMERGENCE, Rate 200 g/ha) | Plant response rating (0 to 10 scale), Bedstraw (bedstraw; POSTEMERGENCE, Rate 50 g/ha) | Plant response rating (0 to 10 scale), Bedstraw (bedstraw; POSTEMERGENCE, Rate 100 g/ha) | Plant response rating, Bedstraw (bedstraw; POSTEMERGENCE, Rate 400 g/ha) | Plant response rating, Bedstraw (bedstraw; Rate 200 g/ha, PREEMERGENCE) | Plant response rating, Cheatgrass (cheatgrass; POSTEMERGENCE, Rate 200 g/ha)
9: Plant response rating, Lambsquarter (lambsquarters; POSTEMERGENCE, Rate 50 g/ha) | Plant response rating (0 to 10 scale), Lambsquarter (lambsquarters; POSTEMERGENCE) | Plant response rating, Lambsquarter (lambsquarters; POSTEMERGENCE, Rate 200 g/ha) | Plant response rating, Lambsquarter (lambsquarters; POSTEMERGENCE, Rate 400 g/ha) | Plant response rating, Morningglory (morningglory; POSTEMERGENCE, Rate 50 g/ha) | Plant response rating (0 to 10 scale), Morningglory (morningglory; POSTEMERGENCE) | Plant response rating, Morningglory (morningglory; POSTEMERGENCE, Rate 200 g/ha) | Plant response rating, Morningglory (morningglory; POSTEMERGENCE, Rate 400 g/ha) | Plant response rating, Velvetleaf (velvetleaf; POSTEMERGENCE, Rate 50 g/ha) | Plant response rating, Velvetleaf (velvetleaf; POSTEMERGENCE, Rate 400 g/ha)
5: Plant response rating, Giant foxtail (giant foxtail; POSTEMERGENCE, Rate 200 g/ha)
6: Plant response rating, Cocklebur (cocklebur; POSTEMERGENCE, Rate 200 g/ha) | Plant response rating, Giant foxtail (giant foxtail; POSTEMERGENCE, Rate 400 g/ha) | Plant response rating, Lambsquarter (lambsquarters; Rate 200 g/ha, PREEMERGENCE) | Plant response rating, Soybean (soybean; POSTEMERGENCE, Rate 50 g/ha) | Plant response rating (0 to 10 scale), Soybean (soybean; POSTEMERGENCE) | Plant response rating, Soybean (soybean; POSTEMERGENCE, Rate 200 g/ha)
2: Plant response rating (0 to 10 scale), Barley (barley; POSTEMERGENCE, Rate 50 g/ha) | Plant response rating (0 to 10 scale), Barley (barley; POSTEMERGENCE, Rate 100 g/ha) | Plant response rating, Barley (barley; POSTEMERGENCE, Rate 400 g/ha) | Plant response rating (0 to 10 scale), Cheatgrass (cheatgrass; POSTEMERGENCE, Rate 50 g/ha) | Plant response rating (0 to 10 scale), Cheatgrass (cheatgrass; POSTEMERGENCE, Rate 100 g/ha) | Plant response rating, Morningglory (morningglory; PREEMERGENCE, Rate 400 g/ha)
8: Plant response rating, Cocklebur (cocklebur; POSTEMERGENCE, Rate 400 g/ha) | Plant response rating (0 to 10 scale), Velvetleaf (velvetleaf; POSTEMERGENCE, Rate 100 g/ha) | Plant response rating, Velvetleaf (velvetleaf; POSTEMERGENCE, Rate 200 g/ha)
7: Plant response rating (0 to 10 scale), Cocklebur (cocklebur; POSTEMERGENCE, Rate 50 g/ha) | Plant response rating (0 to 10 scale), Cocklebur (cocklebur; POSTEMERGENCE, Rate 100 g/ha) | Plant response rating, Giant foxtail (giant foxtail; PREEMERGENCE, Rate 400 g/ha) | Plant response rating, Soybean (soybean; POSTEMERGENCE, Rate 400 g/ha)
0: Plant response rating, Barley (barley; PREEMERGENCE, Rate 50 g/ha) | Plant response rating (0 to 10 scale), Barley (barley; PREEMERGENCE, Rate 100 g/ha) | Plant response rating, Barley (barley; PREEMERGENCE, Rate 400 g/ha) | Plant response rating, Barley (barley; Rate 200 g/ha, PREEMERGENCE) | Plant response rating, Bedstraw (bedstraw; PREEMERGENCE, Rate 50 g/ha) | Plant response rating (0 to 10 scale), Bedstraw (bedstraw; PREEMERGENCE, Rate 100 g/ha) | Plant response rating, Bedstraw (bedstraw; PREEMERGENCE, Rate 400 g/ha) | Plant response rating, Cheatgrass (cheatgrass; PREEMERGENCE, Rate 50 g/ha) | Plant response rating (0 to 10 scale), Cheatgrass (cheatgrass; PREEMERGENCE, Rate 100 g/ha) | Plant response rating, Cheatgrass (cheatgrass; PREEMERGENCE, Rate 400 g/ha) | Plant response rating, Cheatgrass (cheatgrass; Rate 200 g/ha, PREEMERGENCE) | Plant response rating, Cocklebur (cocklebur; PREEMERGENCE, Rate 50 g/ha) | Plant response rating (0 to 10 scale), Cocklebur (cocklebur; PREEMERGENCE, Rate 100 g/ha) | Plant response rating, Cocklebur (cocklebur; PREEMERGENCE, Rate 400 g/ha) | Plant response rating, Cocklebur (cocklebur; Rate 200 g/ha, PREEMERGENCE) | Plant response rating, Giant foxtail (giant foxtail; PREEMERGENCE, Rate 50 g/ha) | Plant response rating (0 to 10 scale), Giant foxtail (giant foxtail; PREEMERGENCE) | Plant response rating, Giant foxtail (giant foxtail; Rate 200 g/ha, PREEMERGENCE) | Plant response rating, Lambsquarter (lambsquarters; PREEMERGENCE, Rate 50 g/ha) | Plant response rating (0 to 10 scale), Lambsquarter (lambsquarters; PREEMERGENCE) | Plant response rating, Morningglory (morningglory; PREEMERGENCE, Rate 50 g/ha) | Plant response rating (0 to 10 scale), Morningglory (morningglory; PREEMERGENCE) | Plant response rating, Morningglory (morningglory; Rate 200 g/ha, PREEMERGENCE) | Plant response rating, Soybean (soybean; PREEMERGENCE, Rate 50 g/ha) | Plant response rating (0 to 10 scale), Soybean (soybean; PREEMERGENCE) | Plant response rating, Soybean (soybean; PREEMERGENCE, Rate 400 g/ha) | Plant response rating, Soybean (soybean; Rate 200 g/ha, PREEMERGENCE) | Plant response rating, Velvetleaf (velvetleaf; PREEMERGENCE, Rate 50 g/ha) | Plant response rating, Velvetleaf (velvetleaf; Rate 200 g/ha, PREEMERGENCE)

CCS(=O)(=O)Oc1cc(-c2nn3c(c2Cl)CCCC3)c(F)cc1Cl [Compound 25]
7: Plant response rating (0 to 10 scale), Cocklebur (cocklebur; POSTEMERGENCE, Rate 50 g/ha) | Plant response rating, Giant foxtail (giant foxtail; Rate 200 g/ha, PREEMERGENCE)
9: Plant response rating (0 to 10 scale), Bedstraw (bedstraw; POSTEMERGENCE, Rate 50 g/ha) | Plant response rating, Bedstraw (bedstraw; POSTEMERGENCE, Rate 200 g/ha) | Plant response rating, Lambsquarter (lambsquarters; POSTEMERGENCE, Rate 50 g/ha) | Plant response rating, Lambsquarter (lambsquarters; PREEMERGENCE, Rate 50 g/ha)
5: Plant response rating, Barley (barley; POSTEMERGENCE, Rate 200 g/ha) | Plant response rating, Bedstraw (bedstraw; PREEMERGENCE, Rate 50 g/ha) | Plant response rating, Morningglory (morningglory; Rate 200 g/ha, PREEMERGENCE)
1: Plant response rating, Cocklebur (cocklebur; Rate 200 g/ha, PREEMERGENCE) | Plant response rating, Morningglory (morningglory; PREEMERGENCE, Rate 50 g/ha) | Plant response rating, Velvetleaf (velvetleaf; PREEMERGENCE, Rate 50 g/ha)
10: Plant response rating, Bedstraw (bedstraw; Rate 200 g/ha, PREEMERGENCE) | Plant response rating, Lambsquarter (lambsquarters; POSTEMERGENCE, Rate 200 g/ha) | Plant response rating, Lambsquarter (lambsquarters; Rate 200 g/ha, PREEMERGENCE) | Plant response rating, Morningglory (morningglory; POSTEMERGENCE, Rate 200 g/ha) | Plant response rating, Velvetleaf (velvetleaf; POSTEMERGENCE, Rate 200 g/ha) | Plant response rating, Velvetleaf (velvetleaf; Rate 200 g/ha, PREEMERGENCE)
8: Plant response rating, Cocklebur (cocklebur; POSTEMERGENCE, Rate 200 g/ha) | Plant response rating, Morningglory (morningglory; POSTEMERGENCE, Rate 50 g/ha) | Plant response rating, Soybean (soybean; POSTEMERGENCE, Rate 50 g/ha) | Plant response rating, Velvetleaf (velvetleaf; POSTEMERGENCE, Rate 50 g/ha)
0: Plant response rating, Barley (barley; PREEMERGENCE, Rate 50 g/ha) | Plant response rating, Barley (barley; Rate 200 g/ha, PREEMERGENCE) | Plant response rating, Cheatgrass (cheatgrass; PREEMERGENCE, Rate 50 g/ha) | Plant response rating, Cocklebur (cocklebur; PREEMERGENCE, Rate 50 g/ha) | Plant response rating, Soybean (soybean; PREEMERGENCE, Rate 50 g/ha) | Plant response rating, Soybean (soybean; Rate 200 g/ha, PREEMERGENCE)
2: Plant response rating, Giant foxtail (giant foxtail; PREEMERGENCE, Rate 50 g/ha)
4: Plant response rating (0 to 10 scale), Barley (barley; POSTEMERGENCE, Rate 50 g/ha) | Plant response rating, Giant foxtail (giant foxtail; POSTEMERGENCE, Rate 200 g/ha) | Plant response rating, Soybean (soybean; POSTEMERGENCE, Rate 200 g/ha)
3: Plant response rating (0 to 10 scale), Cheatgrass (cheatgrass; POSTEMERGENCE, Rate 50 g/ha) | Plant response rating, Cheatgrass (cheatgrass; POSTEMERGENCE, Rate 200 g/ha) | Plant response rating, Cheatgrass (cheatgrass; Rate 200 g/ha, PREEMERGENCE) | Plant response rating, Giant foxtail (giant foxtail; POSTEMERGENCE, Rate 50 g/ha)
